Laboratory results: patent US20210138025A1, “CATIONIC PEPTIDES WITH IMMUNOMODULATORY AND/OR ANTI-BIOFILM ACTIVITIES” (priority 2018, published 2021)
Non-standard residues stand in square brackets, D forms with d. No end group written: not given here. hArg = N=C(N)NCCCC[C@H](N)C(=O)O; Agb = N=C(N)NCC[C@H](N)C(=O)O; Agp = N=C(N)NC[C@H](N)C(=O)O; Orn = NCCC[C@H](N)C(=O)O; Dab = NCC[C@H](N)C(=O)O; Dap = NC[C@H](N)C(=O)O

The substances below were run on S. aureus (MRSA SAP0017). Conditions: SPOT synthesized control peptides, determined as in Table 5; Table 7.
Type: cell-based, Staphylococcus aureus
Description: Methods of assessment of anti-biofilm activity: MRSA S. aureus strain SAP0017 biofilm formation was initially analyzed using a static abiotic solid surface assay as described elsewhere (de la Fuente-Nunez et al., 2012) and shown graphically in FIG. 2. Dilutions (1/100) of overnight cultures were incubated in BM2 biofilm-adjusted medium [62 mM potassium phosphate buffer (pH 7), 7 mM (NH4)2SO4, 2 mM MgSO4, 10 μM FeSO4, 0.4% (wt/vol) glucose, 0.5% (wt/vol) Casamino Acids], or a nutrient rich medium such as Tryptic soy broth supplemented with 1% glucose, in polypropylene microtiter plates (Falcon, United States) in the absence (control) or presence of peptide. Peptide was added at time zero (prior to adding the diluted, overnight cultures) in varying concentrations, and the amount biofilm formation was recorded after 22-46 h incubation for most bacteria. To quantify biofilm growth, planktonic cells were removed and biofilm cells adhering to the side of the wells were stained with crystal violet, and absorbance at 595 nm was measured using a microtiter plate reader (Bio-Tek Instruments Inc., United States).

Substance | % Biofilm Inhibition [%]
C58 (V[Agp]LIVAVRIWRR) [Peptide C58] | 96
C59 (VR[Agp]IVAVRIWRR-NH2; N-terminus assumed; SMILES CC[C@H](C)[C@H](NC(=O)[C@H](CCCNC(=N)N)NC(=O)[C@@H](NC(=O)[C@H](C)NC(=O)[C@@H](NC(=O)[C@@H](NC(=O)[C@H](CNC(=N)N)NC(=O)[C@H](CCCNC(=N)N)NC(=O)[C@@H](N)C(C)C)[C@@H](C)CC)C(C)C)C(C)C)C(=O)N[C@@H](Cc1c[nH]c2ccccc12)C(=O)N[C@@H](CCCNC(=N)N)C(=O)N[C@@H](CCCNC(=N)N)C(N)=O) [Peptide C59] | 104
C60 (VRL[Agp]VAVRIWRR-NH2; N-terminus assumed; SMILES CC[C@H](C)[C@H](NC(=O)[C@H](CCCNC(=N)N)NC(=O)[C@@H](NC(=O)[C@H](C)NC(=O)[C@@H](NC(=O)[C@H](CNC(=N)N)NC(=O)[C@H](CC(C)C)NC(=O)[C@H](CCCNC(=N)N)NC(=O)[C@@H](N)C(C)C)C(C)C)C(C)C)C(=O)N[C@@H](Cc1c[nH]c2ccccc12)C(=O)N[C@@H](CCCNC(=N)N)C(=O)N[C@@H](CCCNC(=N)N)C(N)=O) [Peptide C60] | 104
C61 (VRLI[Agp]AVRIWRR-NH2; N-terminus assumed; SMILES CC[C@H](C)[C@H](NC(=O)[C@H](CC(C)C)NC(=O)[C@H](CCCNC(=N)N)NC(=O)[C@@H](N)C(C)C)C(=O)N[C@@H](CNC(=N)N)C(=O)N[C@@H](C)C(=O)N[C@H](C(=O)N[C@@H](CCCNC(=N)N)C(=O)N[C@H](C(=O)N[C@@H](Cc1c[nH]c2ccccc12)C(=O)N[C@@H](CCCNC(=N)N)C(=O)N[C@@H](CCCNC(=N)N)C(N)=O)[C@@H](C)CC)C(C)C) [Peptide C61] | 101
C62 (VRLIV[Agp]VRIWRR) [Peptide C62] | 106
C63 (VRLIVA[Agp]RIWRR-NH2; N-terminus assumed; SMILES CC[C@H](C)[C@H](NC(=O)[C@H](CCCNC(=N)N)NC(=O)[C@H](CNC(=N)N)NC(=O)[C@H](C)NC(=O)[C@@H](NC(=O)[C@@H](NC(=O)[C@H](CC(C)C)NC(=O)[C@H](CCCNC(=N)N)NC(=O)[C@@H](N)C(C)C)[C@@H](C)CC)C(C)C)C(=O)N[C@@H](Cc1c[nH]c2ccccc12)C(=O)N[C@@H](CCCNC(=N)N)C(=O)N[C@@H](CCCNC(=N)N)C(N)=O) [Peptide C63] | 105
C64 (VRLIVAV[Agp]IWRR) [Peptide C64] | 107
C65 (VRLIVAVR[Agp]WRR) [Peptide C65] | 107
C66 (VRLIVAVRI[Agp]RR) [Peptide C66] | 107
C67 (VRLIVAVRIW[Agp]R-NH2; N-terminus assumed; SMILES CC[C@H](C)[C@H](NC(=O)[C@H](CCCNC(=N)N)NC(=O)[C@@H](NC(=O)[C@H](C)NC(=O)[C@@H](NC(=O)[C@@H](NC(=O)[C@H](CC(C)C)NC(=O)[C@H](CCCNC(=N)N)NC(=O)[C@@H](N)C(C)C)[C@@H](C)CC)C(C)C)C(C)C)C(=O)N[C@@H](Cc1c[nH]c2ccccc12)C(=O)N[C@@H](CNC(=N)N)C(=O)N[C@@H](CCCNC(=N)N)C(N)=O) [Peptide C67] | 105
C68 (VRLIVAVRIWR[Agp]) [Peptide C68] | 106
C69 (V[Agb]LIVAVRIWRR) [Peptide C69] | 81
C70 (VR[Agb]IVAVRIWRR) [Peptide C70] | 98
C71 (VRL[Agb]VAVRIWRR; not fully specified (C-terminus); printed as VRLGbutVAVRIWRR) [Peptide C71] | 103
C72 (VRLI[Agb]AVRIWRR; not fully specified (C-terminus); printed as VRLIGbutAVRIWRR) [Peptide C72] | 105
C74 (VRLIVA[Agb]RIWRR) [Peptide C74] | 106
C75 (VRLIVAV[Agb]IWRR; not fully specified (C-terminus); printed as VRLIVAVGbutIWRR) [Peptide C75] | 103
C76 (VRLIVAVR[Agb]WRR; not fully specified (C-terminus); printed as VRLIVAVRGbutWRR) [Peptide C76] | 104
C77 (VRLIVAVRI[Agb]RR; not fully specified (C-terminus); printed as VRLIVAVRIGbutRR) [Peptide C77] | 101
C78 (VRLIVAVRIW[Agb]R; not fully specified (C-terminus); printed as VRLIVAVRIWGbutR) [Peptide C78] | 101
C79 (VRLIVAVRIWR[Agb]) [Peptide C79] | 72
C80 (V[hArg]LIVAVRIWRR) [Peptide C80] | 99
C81 (VR[hArg]IVAVRIWRR) [Peptide C81] | 107
C82 (VRL[hArg]VAVRIWRR) [Peptide C82] | 106

Substance | % Biofilm Inhibition [%]
C83 (VRLI[hArg]AVRIWRR) [Peptide C83] | 106
C84 (VRLIVA[hArg]RIWRR; not fully specified (C-terminus)) [Peptide C84] | 105
C85 (VRLIVAVR[hArg]WRR) [Peptide C85] | 99
C86 (VRLIVAVRI[hArg]RR) [Peptide C86] | 75
C87 (V[Dap]LIVAVRIWRR) [Peptide C87] | 73
C88 (VR[Dap]IVAVRIWRR) [Peptide C88] | 104
C89 (VRL[Dap]VAVRIWRR) [Peptide C89] | 99
C91 (VRLIV[Dap]VRIWRR) [Peptide C91] | 76
C92 (VRLIVA[Dap]RIWRR) [Peptide C92] | 103
C93 (VRLIVAV[Dap]IWRR) [Peptide C93] | 71
C94 (VRLIVAVR[Dap]WRR) [Peptide C94] | 92
C95 (V[Dab]LIVAVRIWRR) [Peptide C95] | 71
C96 (VR[Dab]IVAVRIWRR) [Peptide C96] | 89
C97 (VRL[Dab]VAVRIWRR; not fully specified (C-terminus)) [Peptide C97] | 102
C98 (VRLI[Dab]AVRIWRR; not fully specified (C-terminus)) [Peptide C98] | 103
C99 (VRLIV[Dab]VRIWRR; not fully specified (C-terminus)) [Peptide C99] | 100
C100 (VRLIVA[Dab]RIWRR-NH2; N-terminus assumed; SMILES CC[C@H](C)[C@H](NC(=O)[C@H](CCCNC(=N)N)NC(=O)[C@H](CCN)NC(=O)[C@H](C)NC(=O)[C@@H](NC(=O)[C@@H](NC(=O)[C@H](CC(C)C)NC(=O)[C@H](CCCNC(=N)N)NC(=O)[C@@H](N)C(C)C)[C@@H](C)CC)C(C)C)C(=O)N[C@@H](Cc1c[nH]c2ccccc12)C(=O)N[C@@H](CCCNC(=N)N)C(=O)N[C@@H](CCCNC(=N)N)C(N)=O) [Peptide C100] | 104
C101 (VRLIVAV[Dab]IWRR-NH2; N-terminus assumed; SMILES CC[C@H](C)[C@H](NC(=O)[C@H](CCN)NC(=O)[C@@H](NC(=O)[C@H](C)NC(=O)[C@@H](NC(=O)[C@@H](NC(=O)[C@H](CC(C)C)NC(=O)[C@H](CCCNC(=N)N)NC(=O)[C@@H](N)C(C)C)[C@@H](C)CC)C(C)C)C(C)C)C(=O)N[C@@H](Cc1c[nH]c2ccccc12)C(=O)N[C@@H](CCCNC(=N)N)C(=O)N[C@@H](CCCNC(=N)N)C(N)=O) [Peptide C101] | 103
C102 (VRLIVAVR[Dab]WRR-NH2; N-terminus assumed; SMILES CC[C@H](C)[C@H](NC(=O)[C@H](CC(C)C)NC(=O)[C@H](CCCNC(=N)N)NC(=O)[C@@H](N)C(C)C)C(=O)N[C@H](C(=O)N[C@@H](C)C(=O)N[C@H](C(=O)N[C@@H](CCCNC(=N)N)C(=O)N[C@@H](CCN)C(=O)N[C@@H](Cc1c[nH]c2ccccc12)C(=O)N[C@@H](CCCNC(=N)N)C(=O)N[C@@H](CCCNC(=N)N)C(N)=O)C(C)C)C(C)C) [Peptide C102] | 104
C103 (VRLIVAVRI[Dab]RR-NH2; N-terminus assumed; SMILES CC[C@H](C)[C@H](NC(=O)[C@H](CCCNC(=N)N)NC(=O)[C@@H](NC(=O)[C@H](C)NC(=O)[C@@H](NC(=O)[C@@H](NC(=O)[C@H](CC(C)C)NC(=O)[C@H](CCCNC(=N)N)NC(=O)[C@@H](N)C(C)C)[C@@H](C)CC)C(C)C)C(C)C)C(=O)N[C@@H](CCN)C(=O)N[C@@H](CCCNC(=N)N)C(=O)N[C@@H](CCCNC(=N)N)C(N)=O) [Peptide C103] | 102
C104 (VRLIVAVRIW[Dab]R) [Peptide C104] | 93
C105 (VRLIVAVRIWR[Dab]) [Peptide C105] | 96
C106 (VR[Orn]IVAVRIWRR-NH2; N-terminus assumed; SMILES CC[C@H](C)[C@H](NC(=O)[C@H](CCCNC(=N)N)NC(=O)[C@@H](NC(=O)[C@H](C)NC(=O)[C@@H](NC(=O)[C@@H](NC(=O)[C@H](CCCN)NC(=O)[C@H](CCCNC(=N)N)NC(=O)[C@@H](N)C(C)C)[C@@H](C)CC)C(C)C)C(C)C)C(=O)N[C@@H](Cc1c[nH]c2ccccc12)C(=O)N[C@@H](CCCNC(=N)N)C(=O)N[C@@H](CCCNC(=N)N)C(N)=O) [Peptide C106] | 104
C107 (VRL[Orn]VAVRIWRR) [Peptide C107] | 71
